Common to all, as to assay: growth of human tumour cells (NCI), 48 h
The test system of test [1] is 786-0 renal.
Test [2] has as its system A549 NSCLC.
In test [3] the test system is ACHN renal.
Test [4] deals with EKVX NSCLC.
In test [5] the test system is HOP-92 NSCLC.
The subject of test [6] is NCI-H23 lung.
The test system of test [7] is NCI-H460 lung.
Test [8] has as its system OVCAR-8 ovarian.
Test [9] has as its system RPMI-8226 leukemia.
In test [10] the test system is SF-268 CNS.
For test [11], the system named is SNB-75 CNS.
For test [12], the system named is U251 CNS.
Test [13] concerns NCI/ADR-RES ovarian.
The subject of test [14] is T-47D breast.
Test [15] has as its system DU-145 prostate.

These results are taken from PubChem BioAssay (NCI).

Each structure is given as a SMILES string.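 Exposure lasted 48 hours, with cells grown in 96-well plates and compounds tested at five concentrations. Definition used: TGI = concentration required for complete inhibition of growth.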

With `Cc1c(N)c(C#N)c2n(C)c3ncccc3n2c1=O`, the TGI in test [1], in test [2], in test [3], in test [4], in test [5] and in test [6] was over 100 µM throughout. The TGI in test [7], in test [8], in test [9], in test [10], in [11] and in test [12] was over 100 µM throughout.
For the compound `CN(C)C12C=CC=CC3=C(c4ccccc4)C(c4ccccc4)=C(c4ccccc4)C31c1ccccc1C2` (stereo not given), the TGI in test [1], in test [2], in test [3], in [4], in [7] and in test [13] was over 100 µM each time. Further, the TGI in test [8], in test [9], in test [10], in test [11], in [14] and in [12] was over 100 µM throughout.
In the case of `CC(=O)[CH-]C(=O)c1ccccc1.CC(=O)[CH-]C(=O)c1ccccc1.CC[C@H](CCC(C)[C@H]1CCC2[C@@H]3CC=C4C[C@@H]([O-])CC[C@]4(C)C3CC[C@@]21C)C(C)C.CC[C@H](CCC(C)[C@H]1CCC2[C@@H]3CC=C4C[C@@H]([O-])CC[C@]4(C)C3CC[C@@]21C)C(C)C.Cl.[Ti+4]` (stereo not given in full), the TGI in test [1], in test [2], in [3], in [4], in test [6] and in [7] was over 25 µM each time. The TGI in test [8], in [9], in [10], in [11] and in test [12] was over 25 µM each time.
As to `Cc1cc(N(C)c2ccccc2)nc(N(C)c2ccccc2)n1`, the TGI is over 100 µM in [1]; over 100 µM in test [2]; 95.7 µM in [3]; over 100 µM in test [15]; over 100 µM in test [4]; over 100 µM in [6]. The TGI in test [7] was over 100 µM; in [13] it was over 100 µM; in test [8], over 100 µM; in [9] it was 65.1 µM; in test [10], over 100 µM; in test [11], over 100 µM. In test [12], the TGI was over 100 µM.
As for `O=C1NC(=S)NC(=O)C1=Cc1ccc([N+](=O)[O-])o1`, the TGI in test [1] was 36.5 µM; in test [2] it was over 100 µM; in [3], 34.6 µM; in [4], 42.8 µM; in test [5], 36.3 µM; in test [6] it was 31.9 µM. The TGI in [7] is over 100 µM; in test [8], 66.9 µM; in test [9], 54 µM; in [10], over 100 µM; in test [11], 31.6 µM; in [12], over 100 µM.
For the compound `[N-]=[N+]=NC1(Cc2ccccc2)C(=O)Nc2ccccc2C1=O` (stereo not given), the TGI in test [1], in test [2], in test [3], in test [4], in test [5] and in [6] was over 100 µM in each case. For the same compound, the TGI in test [7], in test [8], in test [10], in [11] and in [12] was over 100 µM in each case.
As to `CCOC(=O)/C1=C(\C)N(Cc2ccccc2)C(=O)c2ccccc2C(=O)c2c(OC(C)=O)ccc(OC(C)=O)c21`, the TGI was over 100 µM in test [1]; over 100 µM in test [2]; over 100 µM in [3]; 90.9 µM in test [4]; 43.9 µM in test [5]; over 100 µM in test [7]. Moreover, the TGI was over 100 µM in test [13]; over 100 µM in test [8]; 45.1 µM in [9]; over 100 µM in [10]; over 100 µM in test [11]; over 100 µM in [14]. In test [12], this compound gave a TGI of over 100 µM.
`CC12CCC(=O)N1[C@@H](c1ccccc1)[C@@H](c1ccccc1)O2` (stereo not given in full): the TGI in test [1], in test [2], in test [3], in [5], in [7] and in test [8] was over 100 µM each time. Also, the TGI in [10] and in [11] was over 100 µM in each case.
As for `O=C(Oc1ccc(C(c2c(O)c3ccccc3oc2=O)c2c(O)c3ccccc3oc2=O)cc1)c1ccc(C(=O)c2ccccc2)cc1`, the TGI in test [1] was over 100 µM; in test [2] it was 55.8 µM; in [3], 40.3 µM; in [15], over 100 µM; in test [4], 34.6 µM; in [6], 35.3 µM. Moreover, the TGI in test [7] is 45.6 µM; in test [13] it was 34.8 µM; in test [8] it was 33.8 µM; in test [9], 56.5 µM; in test [10], 66.5 µM; in [11] it was 32.4 µM. In addition, the TGI was over 100 µM in [14] and 54.7 µM in test [12].
Turning to `C=CCc1cc(OC)c(O)c(C(=O)/C=C/c2ccc(OC)c(OC)c2)c1`, the TGI in test [1] was 35.9 µM; in test [2] it was over 100 µM; in [3] it was 45.9 µM; in [4] it was 52.5 µM; in test [6] it was 30.5 µM; in test [7] it was over 100 µM. The TGI in [9] was 3.31 µM; in [10] it was 53.1 µM; in test [11], 59.3 µM; in [12], 37.8 µM.
For the compound `S=c1[nH]nc(COc2ccc(Cl)cc2)n1-c1ccccc1`, the TGI in test [1], in [2], in test [3], in test [15], in test [4] and in test [5] was over 100 µM each time. For the same compound, the TGI in test [6], in test [7], in test [13], in test [8], in [10] and in [11] was over 100 µM each time. Also, the TGI in test [14] and in test [12] was over 100 µM in each case.
